Data published in US20230250253A1, “PLASTIC POLYMER BIOCONVERSION PROCESS” (GEORGIA STATE UNIVERSITY RESEARCH FOUNDATION, INC., priority 2020, published 2023).
Like-named read-outs stand apart in the source and are kept apart here.

Tests used:
Y. lipolytica = conditions: cited from earlier work
[1] = Precipitation of polyester-derived medium as a function of pH; type: physicochemical; conditions: PTT1 medium, pH lowered
Protocol: Method: One g of PTT fiber is added to 4 ml of industrial grade ethanol (100 percent ethanol), 1 ml DMSO+0.41 g NaOH (18 percent w/v). The mixture is refluxed with heating […] for 45 −60 min; the reflux allows for heating of the mixture without the ethanol evaporating. The heating process to depolymerize the fibers is as follows: in the first 5 min, no stirring, then stir for 10 min while the fibers crystallize into a white substance. Continue the heating/reflux for the remainder of the prescribed time, then let the system cool. The product will be a bluish, slurry with white crystals; it may also contain residual carpet materials such as polypropylene, calcium carbonate and adhesive. The bluish liquid is the alcohol fraction, containing the alcohol soluble components derived from PTT (propanol, propanal). The white crystals are the TPA. The pH during reflux is 12 to 13 and the pH of slurry is 12-12.5. The slurry can be centrifuged to separate the alcohol and TPA fractions, or the slurry can be added to an aqueous solution adjusted to pH=11 or 12 using NaOH. This latter step is used to make PTT1 medium. In PTT1 medium, the contents as described are added to 1 liter of pH adjusted water, while mixing; the added compounds will not precipitate. The pH of the resulting solution is adjusted to 9.5, typically using HCl and NaOH. 300 mg/l yeast extract is added as a N source. […]

[2] = test system: Yarrowia lipolytica strain 78-003; experiment: FA profile on lipid- versus carbohydrate-containing media; type: cell-based; conditions: for Number of different FAs produced: cells grown 120 h
Text: The hexadecane medium used for FA profile experiments consisted of: 5% v/v hexadecane, 5 g L^−1 yeast nitrogen broth (w/amino acids), 0.5 g L^−1 KH2PO4, and 0.25 g L^−1 Mg2SO4.
Starch medium used for FA profile experiments consisted of: 50 g L^−1 hydrolyzed starch, 2 g L^−1 yeast nitrogen broth (w/amino acids), 0.5 g L^−1 KH2PO4, and 0.25 g L^−1 Mg2SO4. The medium consisted of: 5.4 g L^−1 Tween- 80®, 1.25 g L^−1 (NH4)2SO4, 2.5 g L^−1 KH2PO4, and 0.830 g L^−1 MgSO4. Glucose (5%) medium used for FA profile experiments consisted of: 50 g L^−1 glucose and 3 g L^−1 yeast extract.
Intracellular Lipid Quantification: A modified Bligh and Dyer extraction (Bligh and Dyer 1959) was used to extract lipids from yeast samples. Post-fermentation OP4 culture was withdrawn and aliquoted into pre-weighed 50 ml conical tubes, and tubes were centrifuged, and pellets washed twice with 0.9% NaCl. Pellets were lyophilized overnight using a BT3.3 EL Lyophilizer Tabletop (SP Scientific, USA), weighed, and suspended in a 2:1 v/v chloroform: methanol mixture (5 ml per 50 mg cell dry weight) and sonicated using a Sonic Dismembrator (Fisher Scientific, USA) at 20 kHz, 20% amplitude with pulsing (40 s on, 20 s off for a total working time of 20 min). The chloroform layer was taken and dried under a nitrogen stream. Dried lipids were weighed and derivatized for GC/MS analysis via base-catalyzed esterification with 2.5 ml sodium methoxide (0.1 M) (Milanesio et al. 2013). The reaction was quenched using 200 μL sulfuric acid (>95%), and 2.5 ml hexane was added to each sample, which was then vortexed and centrifuged (5 min at 5000 rpm). 1.5 ml from the top hexane layer was withdrawn for GC/MS analysis.
GC/MS Analysis of Lipid Profile: The FA profile was characterized with an Agilent 7890A gas chromatograph (GC) attached to a 5977A mass spectrometer detector and equipped with an Agilent J&W HP-5 ms UI capillary column ([…]×0.25 mm×[…]). 1 μL samples were injected via an Agilent 7693 Automatic Liquid Sampler in splitless mode with an inlet temperature of 275° C., using helium as the carrier gas at a flow rate of 1 ml min·1. GC oven temperature was held at 60° C. for 1 min, and ramped to 100° C. (rate: 25° C. min·1; hold 1 min). The oven temperature was then increased to 200° C. (rate: 25° C. min^−1; hold 1 min). The oven temperature is then increased to 220° C. (rate: […]; hold 7 min) and then increased to an ending temperature of 300° C. (rate: 25° C. min·1; hold 2 min). A C8-C24 FAME analytical standard was used during sample analyses as an external standard (Sigma Aldrich, USA).

[3] = test system: Yarrowia lipolytica ATCC strain 46482; experiment: Intracellular lipid quantification and GC/MS fatty acid profile, OP5 / PCOP5 medium; type: cell-based
Protocol: Fermentation Optimization: For fermentation optimization experiments, pH, inoculum density, osmolarity, or carbon-nitrogen ratio were altered. For pH experiments, OP5 medium pH was adjusted to 4.0, 5.0, or 6.0 using 2.0 M H2SO4 or 4.0 M NaOH. A Corning 320 pH meter (Corning, USA) was used to measure pH. For starting inoculum density experiments, OP5 medium was inoculated at an inoculum density of either 1.0, 3.0, or 6.0. Aliquots of 1 ml were retrieved from Y. lipolytica overnight culture and inoculum density was measured via absorbance at 600 nm. Based on absorbance readings, a volume of cells corresponding to the desired inoculum density was retrieved from the overnight culture and centrifuged at 4,000 rpm. Pelleted cells were washed twice with 50 mM PBS solution and used to inoculate OP5 medium. […] After the selected parameters were altered, shake flask fermentations were carried out for 120 hours, after which cells were processed and biomass and lipid product formation were analyzed as described below. […]
Component media experiments were carried out in 500 ml Erlenmeyer flasks containing 50 ml medium, and Y. lipolytica was inoculated at an inoculum density of 1.0. […] The supernatant was decanted and cells washed twice with 50 mM PBS before being lyophilized, weighed as described above, and lipids extracted and quantified as described in the following section. […]

[4] = test system: Yarrowia lipolytica ATCC strain 46482; experiment: Y. lipolytica growth (biomass) in OP5 / PCOP5 medium, fermentation optimization; type: cell-based; conditions: added to OP5 medium at 0.75, 1.5 and 3 g L^−1
Protocol: Polypropylene Growth Medium Preparation: OP5 medium is prepared as follows. 125-ml flat-bottomed borosilicate flasks were used to pyrolyze either virgin PP pellets or sheared postconsumer PP in 3 g batches at 540° C. for 195 minutes. The pyrolysis oil (at 15 g L^−1) was combined with: 5.4 g L^−1 Tween-80@, 5 g L^−1 yeast nitrogen base, 2.5 g L^−1 KH2PO4, 2.5 g L^−1 yeast extract, and 1.25 g L^−1 MgSO4 7H2O. The mixture was emulsified with a hand-held food-grade homogenizer. To compensate for the lack of oleic acid as an emulsifier, the homogenization time of OP5 medium was increased from 90 seconds (mixing time for OP4 medium) to 3 minutes. The resulting homogenized medium was autoclaved for 30 min at 121° C. and 15 psi.
Cultures and Fermentation Conditions: Yarrowia lipolytica ATCC strain 46482 was the strain used in this work. Overnight cultures were prepared from 1 ml 60% glycerol stocks of Y. lipolytica stored at −80° C. […] 1 ml aliquots of overnight cultures were withdrawn and used to measure yeast growth via absorbance. […]
Growth Measurements: Y. lipolytica growth measurements were taken spectrophotometrically and gravimetric measurements. Y. lipolytica culture aliquots of 1 ml were withdrawn, and growth was measured via optical density at 600 nm using an Eppendorf 6131 Biophotometer (Eppendorf, USA). […]

[5] = 250 g L^−1 substrate, strain with Poxl-6 and TGL4 inhibited
[6] = Y. lipolytica growing on the medium, this work

For `OCC(O)CO` [Glycerol, glycerol], which Lipid content (Y. lipolytica; [5]) is on record?
The Lipid content was 31 % CDW.

What about the Lipid yield (Y. lipolytica; [5]) of the same compound?
Its Lipid yield is 15.5 g/L.

What about the “C 16:0 in C 16 and C 18 FA profile” value (Y. lipolytica; source Aggelis 2002) of the same compound?
Its value is 15 percentages.

What about the “C 16:1 in C 16 and C 18 FA profile” value (Y. lipolytica; source Aggelis 2002) of the same compound?
The value was 2 percentages.

And the “C 18:0 in C 16 and C 18 FA profile” value (Y. lipolytica; source Aggelis 2002)?
The value was 11 percentages.

And the “C 18:1 in C 16 and C 18 FA profile” value (Y. lipolytica; source Aggelis 2002)?
The value was 47 percentages.

And the “C 18:2 in C 16 and C 18 FA profile” value (Y. lipolytica; source Aggelis 2002)?
Its value is 21 percentages.

And the “C 16:0 in C 16 and C 18 FA profile” value (Y. lipolytica; source André et al. 2009)?
The value was 12 percentages.

And the “C 16:1 in C 16 and C 18 FA profile” value (Y. lipolytica; source André et al. 2009)?
The value was 11 percentages.

And the “C 18:0 in C 16 and C 18 FA profile” value (Y. lipolytica; source André et al. 2009)?
Its value is 9 percentages.

What about the “C 18:1 in C 16 and C 18 FA profile” value (Y. lipolytica; source André et al. 2009) of the same compound?
The value was 57 percentages.

And the “C 18:2 in C 16 and C 18 FA profile” value (Y. lipolytica; source André et al. 2009)?
The value was 11 percentages.

What about the “C 16:0 in C 16 and C 18 FA profile” value (Y. lipolytica; source Makri et al. 2010) of the same compound?
Its value is 13 percentages.

And the “C 16:1 in C 16 and C 18 FA profile” value (Y. lipolytica; source Makri et al. 2010)?
Its value is 17 percentages.

And the “C 18:0 in C 16 and C 18 FA profile” value (Y. lipolytica; source Makri et al. 2010)?
The value was 6 percentages.

And the “C 18:1 in C 16 and C 18 FA profile” value (Y. lipolytica; source Makri et al. 2010)?
The value was 55 percentages.

What about the “C 18:2 in C 16 and C 18 FA profile” value (Y. lipolytica; source Makri et al. 2010) of the same compound?
The value was 7 percentages.

Which “pH at which it precipitates from the medium” value [1] does the source give for `O=C(O)c1ccc(C(=O)O)cc1` [TPA, terephthalic acid] here?
The value was “around 8.5”.

Which “C 16:0 in C 16 and C 18 FA profile” value [2, 6] does the source give for `CCCCCCCCCCCCCCCC` [Hexadecane, hexadecane] here?
The value was 46 percentages.

What about the “C 16:1 in C 16 and C 18 FA profile” value [2, 6] of the same compound?
Its value is 15 percentages.

And the “C 18:0 in C 16 and C 18 FA profile” value [2, 6]?
Its value is 10 percentages.

And the “C 18:1 in C 16 and C 18 FA profile” value [2, 6]?
The value was 25 percentages.

And the “C 18:2 in C 16 and C 18 FA profile” value [2, 6]?
Its value is 4 percentages.

What about the “Number of different FAs produced” value [2] of the same compound?
The value was 5.

For `CCCCCCCC/C=C\CCCCCCCC(=O)OCCOCC(OCCO)C1OCC(OCCO)C1OCCO` (centres unmarked) [Tween® 80, polysorbate 80], which “Fatty acids produced attributable to carbon from the component” value ([3]; growth in OP5 medium) is on record?
Its value is 0.4 g/L.

With `O=C[C@H](O)[C@@H](O)[C@H](O)[C@H](O)CO` [Glucose, glucose] as the compound, how does the “C 16:0 in C 16 and C 18 FA profile” value [2, 6] read?
The value was 16 percentages.

What about the “C 16:1 in C 16 and C 18 FA profile” value [2, 6] of the same compound?
The value was 21 percentages.

What about the “C 18:0 in C 16 and C 18 FA profile” value [2, 6] of the same compound?
Its value is 7 percentages.

And the “C 18:1 in C 16 and C 18 FA profile” value [2, 6]?
Its value is 56 percentages.

And the “Number of different FAs produced” value [2]?
Its value is 10.

Which “Effect on Y. lipolytica cell growth” value [4] does the source give for `[Cl-].[Na+]` [NaCl, sodium chloride] here?
The value was “inhibited”.

And the “Effect on fatty acid production or intracellular fatty acid content” value ([3]; added to OP5 medium at 0.75, 1.5 and 3 g L^−1)?
The value was “no significant impact”.
